Data from US20260306460A1, “COMPOSITION FOR REMOVING AND INHIBITING SENESCENT CELLS, AND USES THEREOF” (LIFECEUTIX CO., LTD., priority 2023, published 2026).
Entries after “also recorded” stand apart in the source; their conditions may differ.

How the values were obtained:
senescent human cells = assay: Viability of doxorubicin-induced senescent human cells (CellTiter-Glo), Example 11; assay type: cell-based; conditions: excessive concentrations (1 or 20 mM)
Description: Cells in which senescence was induced by treatment with doxorubicin were treated with the test compound at designated concentrations and measured using the CellTiter-Glo Luminescent Cell Viability Assay (Promega).
(§1) After 3 days, cell viability was measured using CellTiter-Glo Luminescent Cell Viability Assay (Promega) or light microscopy.

senescent foreskin cells = assay: Survival of senescent human cells treated with supernatant (secreted fluid) from death-induced cells, Example 13; assay type: cell-based; conditions: for Survival: Table 8, supernatant from dying senescent cells treated at 30, 90 or 270 μM (as Example 11), senescent treated cells
Description: as §1
During this additional culture, by checking with an optical microscope, etc., the medium supernatants containing secreted fluid from normally proliferating and senescent cells in which cell death was induced were obtained. The obtained medium supernatant was replaced with the medium of normally proliferating and senescent cells, respectively, and cell survival rate was measured after 3 days.

[1] = test system: HMGN1 secreted from senescent A549 cells; assay: HMGN1 secretion (ELISA) from senescent A549 cancer cells, Example 12; assay type: cell-based, human; conditions: senescent untreated = 100%; 30 μM; 90 μM for LX-305, 905, 1302, 1601, 1603, 2003, 2702, 2901, 3106; 270 μM for LX-1103, 2005, 2007;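 note: A549 cells made senescent by doxorubicin exposure, with DMSO-treated cells serving as the non-senescent control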
Description: Cells were treated with doxorubicin or control (DMSO) and cultured.

[2] = test system: carbon tetrachloride-induced liver fibrosis mice; assay: Carbon tetrachloride-induced liver fibrosis mice, Example 31, Table 57; assay type: in vivo, mouse; conditions: CCl4-induced liver fibrosis mice, untreated = 100%
Procedure, shortened: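 Mice with induced hepatic fibrosis received either the test compound or, as controls, an equal volume of vehicle solution alone. Once dosing ended, liver tissue was harvested and total RNA was isolated. cDNA was synthesized from this RNA, and quantitative RT-PCR was run on it to measure hepatic mRNA levels of the fibrosis- and senescence-related genes.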

[3] = test system: bleomycin-induced pulmonary fibrosis mice; assay: Bleomycin-induced pulmonary fibrosis mice, Example 31, Table 56; assay type: in vivo, mouse; conditions: untreated = 100%
Procedure, shortened: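 After treatment with test compound or vehicle alone, lungs of bleomycin-induced pulmonary fibrosis mice were harvested. Total RNA extracted and gene expression quantified by qRT-PCR.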

naturally aged mice = assay: Anti-aging evaluation in naturally aged mice, Example 31, Table 55; assay type: in vivo, mouse; conditions: for Femur Ctsk mRNA / Kidney Agtr1a mRNA / Liver IL6 mRNA / Liver MMP3 mRNA / Liver p16 mRNA / Open Field Test Time in Center: untreated = 100%; for Heart Sur2a mRNA / Joint Col2a1 mRNA / Skin Col1a1 mRNA / Skin SDF1 mRNA: untreated = 1.0; for Muscle Mass: untreated 0.64 g; for Fat Mass: untreated 0.82 g; for Cataract incidence: untreated 83%;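 for all read-outs here: Vehicle-dosed control mice received solution alone at matching volume, values compare test-compound-treated aged mice against that control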
[4] = test system: naturally aged C57BL6J mice; assay type: in vivo, mouse; conditions: mouse, in vivo
senescent A549 cells = assay: Viability of senescent A549 cells (CellTiter-Glo), Example 18, Table 15; conditions: Homo sapiens, A549, read-out: Survival (%)
Description: Senescence-induced cancer cells treated with doxorubicin were treated with the test compound at designated concentrations, and cell viability was measured using the CellTiter-Glo Luminescent Cell Viability Assay (Promega).

senescent cells = assay: Viability of senescent cells (CellTiter-Glo), Example 17, Table 13; conditions: Homo sapiens, read-out: Survival (%)
Description: Cells induced to undergo senescence by doxorubicin treatment were treated with test compound at designated concentrations and measured using the CellTiter-Glo Luminescent Cell Viability Assay (Promega).

SMILES	HMGN1 [1]	Liver p16 mRNA [2]	Col1a1 mRNA [2]	Lung p16 mRNA [3]	Col1a1 mRNA [3]	Survival (senescent foreskin cells)	Femur Ctsk mRNA (naturally aged mice)	Heart Sur2a mRNA (naturally aged mice)	Joint Col2a1 mRNA (naturally aged mice)	Kidney Agtr1a mRNA (naturally aged mice)	Liver IL6 mRNA (naturally aged mice)	Liver MMP3 mRNA (naturally aged mice)	Liver p16 mRNA (naturally aged mice)	Open Field Test Time in Center (naturally aged mice)	Skin Col1a1 mRNA (naturally aged mice)	Skin SDF1 mRNA (naturally aged mice)	Muscle Mass (naturally aged mice)	Fat Mass (naturally aged mice)	Cataract incidence (naturally aged mice)	also measured
OO [H2O2]	–	–	–	–	–	–	–	–	–	–	–	–	–	–	–	–	–	–	–	removal of senescent cells (senescent human cells): hardly removed
O=c1c2ccccc2[se]n1CCn1[se]c2ccccc2c1=O [LX-112, 1,2-[bis(1,2-benzisoselenazolone-3 (2H)-ketone)]ethane]	–	–	–	–	–	–	–	–	–	–	–	–	–	–	–	–	–	–	–	death of senescent cells by medium supernatant (senescent foreskin cells; supernatants from proliferating and senescent death-induced cells): selectively induced the death of senescent cells; also recorded: same results
CCn1c(C#CCNc2ccccc2)cc2cc(CNC)ccc21 [LX-905]	217%	76 (±6.0) %	71 (±7.5) %	67 (±5.5) %	59 (±13.3) %	46.5	62%	2.4 fold	2.3 fold	52%	38%	76%	67%	241%	2.0 Fold	1.5 fold	0.69 g	1.08 g	65%	–
NCC(=O)CCC(=O)O [LX-1103, 5-Aminolevulinic acid]	158%	77 (±3.5) %	60 (±6.9) %	73 (±3.2) %	76 (±5.3) %	101.8	78%	2.4 fold	2.8 fold	76%	70%	68%	47%	183%	2.3 Fold	1.7 fold	0.68 g	0.89 g	54%	–
O=C(O)c1cc(/N=N/c2ccc(S(=O)(=O)Nc3ccccn3)cc2)ccc1O [LX-1302, Sulfasalazine]	147%	52 (±4.4) %	48 (±3.2) %	41 (±1.5) %	59 (±2.6) %	98.5	75%	2.3 fold	2.5 fold	62%	48%	47%	55%	201%	2.4 Fold	1.8 fold	0.70 g	0.92 g	73%	–
Cc1oncc1C(=O)Nc1ccc(C(F)(F)F)cc1 [LX-1603, Leflunomide]	163%	67 (±3.5) %	54 (±2.9) %	78 (±6.1) %	48 (±2.5) %	97.5	64%	2.0 fold	2.3 fold	77%	61%	73%	74%	–	2.6 Fold	1.7 fold	0.69 g	0.92 g	78%	–
CO[C@]1(C(=O)N[C@@H](C)c2ccc(-n3cc(F)cn3)nc2)CC[C@H](c2nc(C)cc(Nc3cc(C)[nH]n3)n2)CC1 [LX-1902, Pralsetinib]	271%	77 (±9.6) %	68 (±5.7) %	72 (±8.8) %	64 (±8.2) %	53.4	81%	1.5 fold	1.5 fold	71%	79%	81%	72%	157%	1.2 Fold	1.6 fold	0.68 g	0.95 g	76%	–
COc1cc(OC)cc(N(CCNC(C)C)c2ccc3ncc(-c4cnn(C)c4)nc3c2)c1 [LX-1903, Erdafitinib]	–	67 (±9.2) %	62 (±6.9) %	73 (±6.6) %	70 (±9.3) %	62.8	77%	1.4 fold	1.7 fold	–	58%	75%	69%	161%	1.2 Fold	1.4 fold	0.69 g	0.97 g	79%	–
C[C@@H]1[C@H]2[C@H]3C(=O)C=C4[C@@]5(C)C=C(C#N)C(=O)C(C)(C)[C@@H]5CC[C@@]4(C)[C@]3(C)CC[C@@]2(CO)CC[C@H]1C [LX-2512]	–	–	–	–	–	–	–	–	–	–	–	–	–	–	–	–	–	–	–	wound/damage healing improvement [4]: damage treatment and recovery
COC(=O)[C@@]1(C)CC[C@]2(C)CC[C@]3(C)[C@H](C(=O)C=C4[C@@]5(C)C=C(C#N)C(=O)C(C)(C)C5CC[C@]43C)[C@@H]2C1 (stereo partly drawn) [LX-2513, Soloxolone methyl]	–	–	–	–	–	–	–	–	–	–	–	–	–	–	–	–	–	–	–	wound/damage healing improvement [4]: damage treatment and recovery
CC1(C)C(=O)C(C#N)=C[C@]2(C)C3=CC(=O)[C@@H]4[C@@H]5C[C@@](C)(C(=O)NCCc6c[nH]c7ccccc67)CC[C@]5(C)CC[C@@]4(C)[C@]3(C)CCC12 (stereo partly drawn) [LX-2517, Soloxolone tryptamide]	–	–	–	–	–	–	–	–	–	–	–	–	–	–	–	–	–	–	–	wound/damage healing improvement [4]: damage treatment and recovery
CC/C=C\C/C=C\C/C=C\C/C=C\C/C=C\C/C=C\CCC(=O)O [LX-2702, Docosahexaenoic acid]	237%	46 (±3.2) %	53 (±6.1) %	53 (±2.8) %	43 (±5.9) %	68.6	50%	2.3 fold	2.8 fold	57%	54%	73%	80%	211%	1.8 Fold	2.7 fold	0.72 g	1.13 g	66%	–
O=C(NCc1ccncc1)C12CC3CC(C1)CC(c1ccc(Cl)cc1)(C3)C2 [LX-3106, Opaganib]	236%	81 (±6.5) %	71 (±5.4) %	67 (±4.3) %	77 (±3.7) %	72.6	76%	1.6 fold	2.0 fold	83%	71%	85%	76%	193%	1.3 Fold	1.3 fold	0.72 g	0.88 g	71%	–
C[C@H](N)C(=O)N1C[C@H](CCCB(O)O)[C@](N)(C(=O)O)C1 [LX-3107, Numidargistat]	267%	80 (±3.6) %	69 (±8.0) %	81 (±3.9) %	68 (±5.1) %	62.1	81%	1.7 fold	1.1 fold	75%	49%	68%	54%	167%	1.2 Fold	1.4 fold	0.67 g	0.99 g	65%	–
C=C(C)[C@@H]1CC[C@]2(C)CC[C@]3(C)[C@H](CC[C@@H]4[C@@]5(C)CC[C@H](O)C(C)(C)[C@@H]5CC[C@]43C)[C@@H]12 [LX-5433, Lupeol]	–	–	–	–	–	–	–	–	–	–	–	–	–	–	–	–	–	–	–	viability at 1.1 µM (senescent A549 cells): 97.8%; viability at 10 µM (senescent A549 cells): 76.5%; viability at 30 µM (senescent A549 cells): 64.7%; viability at 90 µM (senescent A549 cells): 19.3%; wound/damage healing improvement [4]: damage treatment and recovery; viability at 1.1 µM (senescent cells): 108%; viability at 10 µM (senescent cells): 71.1%; viability at 30 µM (senescent cells): 51.8%; viability at 90 µM (senescent cells): 2.4%
CC(=O)N[C@@H](CS)C(=O)O [NAC, N-acetyl cysteine]	–	–	–	–	–	–	–	–	–	–	–	–	–	–	–	–	–	–	–	removal of senescent cells (senescent human cells): hardly removed
